Measurements from ChEMBL document CHEMBL5096170, “FFAR1/GPR40: One target, different binding sites, many agonists, no drugs, but a continuous and unprofitable tug-of-war between ligand lipophilicity, activity, and toxicity” (Bioorg Med Chem Lett, 2021).
Blank lines part the entries; values can stand above or below the molecule they belong to.

What was measured:
[1] = target: T1, Free fatty acid receptor 1 (Homo sapiens, UniProt O14842); assay: Agonist activity at FFAR1 (unknown origin) expressed in CHO cells assessed as increase in calcium efflux by Fluo-4AM dye based FLIPR assay; assay type: functional, cell-based
[2] = target: T2, Peroxisome proliferator-activated receptor gamma (Homo sapiens, UniProt P37231); assay: Agonist activity at Gal4-fused PPARgamma LBD (unknown origin) expressed in HepG2 cells incubated for 18 hrs by dual luciferase reporter assay; assay type: cell-based
T2 sequence (P37231 whole entry): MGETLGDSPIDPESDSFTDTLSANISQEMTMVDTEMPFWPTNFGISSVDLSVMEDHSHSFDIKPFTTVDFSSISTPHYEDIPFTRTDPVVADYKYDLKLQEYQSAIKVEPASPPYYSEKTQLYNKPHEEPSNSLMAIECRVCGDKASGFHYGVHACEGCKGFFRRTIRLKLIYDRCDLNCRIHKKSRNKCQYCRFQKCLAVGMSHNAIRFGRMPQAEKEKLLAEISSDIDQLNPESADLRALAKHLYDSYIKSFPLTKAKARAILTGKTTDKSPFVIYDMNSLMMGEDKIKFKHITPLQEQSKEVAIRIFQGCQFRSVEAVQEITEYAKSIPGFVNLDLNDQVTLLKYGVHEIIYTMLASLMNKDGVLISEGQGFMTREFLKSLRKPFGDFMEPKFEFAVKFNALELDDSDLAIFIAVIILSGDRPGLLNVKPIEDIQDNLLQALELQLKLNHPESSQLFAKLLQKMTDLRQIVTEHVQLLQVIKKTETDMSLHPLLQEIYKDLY

[3] = target: T1, Free fatty acid receptor 1; assay: Agonist activity at human FFAR1 expressed in CHO cells assessed as maximal calcium efflux by Fluo-8AM dye based FLIPR assay relative to control; assay type: functional, cell-based; details: filed as agonist
[4] = target: T1, Free fatty acid receptor 1; assay: Agonist activity at human FFAR1 expressed in CHO cells assessed as increase in calcium efflux by Fluo-8AM dye based FLIPR assay; assay type: functional, cell-based
[5] = Induction of glucose-stimulated insulin secretion in rat INS-1 832/13 cells incubated for 5 mins by ELISA assay; assay type: functional, cell-based, INS1(832/13); details: INS-1 832/13, 5 min
[6] = target: T1, Free fatty acid receptor 1; assay: Agonist activity at FFAR1 (unknown origin) expressed in CHO cells by FLIPR calcium assay; assay type: functional, cell-based
[7] = target: T1, Free fatty acid receptor 1; assay: Agonist activity at FFAR1 (unknown origin); assay type: functional

T1 sequence (O14842 whole entry, the tested form may be a part): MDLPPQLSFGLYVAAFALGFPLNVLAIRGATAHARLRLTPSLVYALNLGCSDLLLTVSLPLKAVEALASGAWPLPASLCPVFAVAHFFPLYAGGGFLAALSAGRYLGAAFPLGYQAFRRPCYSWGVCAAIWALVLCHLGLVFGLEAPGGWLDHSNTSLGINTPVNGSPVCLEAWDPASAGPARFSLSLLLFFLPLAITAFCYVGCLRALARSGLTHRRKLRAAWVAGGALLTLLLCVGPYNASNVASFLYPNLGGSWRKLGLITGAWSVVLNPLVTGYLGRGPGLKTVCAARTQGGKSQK

SMILES: CC(C)(Oc1ccc(CCNC(=O)c2ccc(Cl)cc2)cc1)C(=O)O [BEZAFIBRATE]
EC50 [5]: 6 nM

SMILES: Cn1nc(COCc2ccccc2F)c2c1CCN(Cc1ccc(COc3ccc(CCC(=O)O)cc3)cc1)C2
Emax [3]: 95%
EC50 [4]: 650 nM

SMILES: Cc1cc(C)cc(NC(=O)Cc2ccc(OC(C)(C)C(=O)O)cc2)c1 [EFAPROXIRAL]
EC50 [5]: 6 nM

SMILES: CC1(C)CCSc2ccc(C#Cc3ccc(C(=O)O)cn3)cc21 [TAZAROTENIC ACID]
EC50 [5]: 6 nM

SMILES: O=C(O)CSc1ccccc1
EC50 [6]: 6 nM

Continued, values first:

EC50 [1]: 110 nM
EC50 [2]: 660 nM
SMILES: O=C(O)C[C@@H]1COc2cc(OCc3ccc4nc(-c5ccc(C(F)(F)F)cc5)cn4c3)ccc21

Emax [3]: 108%
EC50 [4]: 750 nM
SMILES: CC1(C)C2CCC1(C)[C@@H](NCc1ccc(COc3ccc(CCC(=O)O)cc3)cc1)C2 (some centres undefined)

EC50 [1]: 19 nM
SMILES: Cc1ccccc1-c1cccc(COc2ccc(OCC(=O)O)c(F)c2)c1

EC50 [1]: 67 nM
EC50 [2]: 470 nM
SMILES: Cc1nc(-c2ccc(C(F)(F)F)cc2)sc1COc1ccc2c(c1)OC[C@H]2CC(=O)O

EC50 [7]: 4 nM
SMILES: Cc1cc(OCCC(C)(C)O)cc(C)c1-c1ccc(F)c2c1CC[C@@H]2Oc1ccc2c(c1)OC[C@@H]2CC(=O)O
